Activity calls are given as the source filed them. The rule behind the calls is not given here.

We go through 10 compounds from PubChem BioAssay AID1259407 (Chemical Carcinogenesis Research Information System (CCRIS), 2018).

The data set relates to CCRIS mutagenicity, Ames/micronucleus/aberration tests. The experiment in a line: CCRIS mutagenicity studies.
Where [1] appears, read: Test System: AMES SALMONELLA TYPHIMURIUM, Strain/Indicator: TA98, Metabolic Activation: NONE, Method: STANDARD PLATE.
Setting [2] is: Test System: AMES SALMONELLA TYPHIMURIUM, Strain/Indicator: TA98, Metabolic Activation: RAT, LIVER, S-9, AROCLOR 1254, Method: STANDARD PLATE.
Where [3] appears, read: Test System: AMES SALMONELLA TYPHIMURIUM, Strain/Indicator: TA100, Metabolic Activation: NONE, Method: STANDARD PLATE.
Where [4] appears, read: Test System: AMES SALMONELLA TYPHIMURIUM, Strain/Indicator: TA100, Metabolic Activation: RAT, LIVER, S-9, AROCLOR 1254, Method: STANDARD PLATE.
Where [5] appears, read: Test System: AMES SALMONELLA TYPHIMURIUM, Strain/Indicator: TA1535, Metabolic Activation: NONE, Method: STANDARD PLATE.
The mark [6] stands for this setting: Test System: AMES SALMONELLA TYPHIMURIUM, Strain/Indicator: TA1535, Metabolic Activation: RAT, LIVER, S-9, AROCLOR 1254, Method: STANDARD PLATE.
Where [7] appears, read: Test System: AMES SALMONELLA TYPHIMURIUM, Strain/Indicator: TA1537, Metabolic Activation: NONE, Method: STANDARD PLATE.
The mark [8] stands for this setting: Test System: AMES SALMONELLA TYPHIMURIUM, Strain/Indicator: TA1537, Metabolic Activation: RAT, LIVER, S-9, AROCLOR 1254, Method: STANDARD PLATE.

`Cc1cccc(Nc2cc(Cl)nc(SCC(=O)NCCO)n2)c1C`: the mutagenic call runs as follows: (Test System: AMES SALMONELLA TYPHIMURIUM, Strain/Indicator: TA98, Metabolic Activation: NONE) “inactive; negative”; (Test System: AMES SALMONELLA TYPHIMURIUM, Strain/Indicator: TA98, Metabolic Activation: RAT, LIVER, S-9, AROCLOR 1254) “inactive; negative”; (Test System: AMES SALMONELLA TYPHIMURIUM, Strain/Indicator: TA102, Metabolic Activation: NONE) “inactive; negative”; (Test System: AMES SALMONELLA TYPHIMURIUM, Strain/Indicator: TA102, Metabolic Activation: RAT, LIVER, S-9, AROCLOR 1254) “inactive; negative”; (Test System: AMES SALMONELLA TYPHIMURIUM, Strain/Indicator: TA104, Metabolic Activation: NONE) “inactive; negative”; (Test System: AMES SALMONELLA TYPHIMURIUM, Strain/Indicator: TA104, Metabolic Activation: RAT, LIVER, S-9, AROCLOR 1254) “inactive; negative”. Moreover, where the note is “Test System: UDS RAT HEPATOCYTES, Strain/Indicator: THY INCORP, Metabolic Activation: NONE, Method: LIQUID SCINTILLATION COUNTING”, the mutagenic call was “active; positive”.

Consider `O[C@@H]1[C@@H]2O[C@@H]2c2c(ccc3cc4ccc5ccccc5c4nc23)[C@H]1O`, for which the mutagenic call (Test System: AMES SALMONELLA TYPHIMURIUM, Strain/Indicator: TA98, Metabolic Activation: NONE, Method: PREINCUBATION) is “active; positive”; the mutagenic call (Test System: AMES SALMONELLA TYPHIMURIUM, Strain/Indicator: TA100, Metabolic Activation: NONE, Method: PREINCUBATION) is “active; positive”; the mutagenic call (Test System: CHINESE HAMSTER V-79, Strain/Indicator: V-79/8-AZAGUANINE, Metabolic Activation: NONE, Method: STANDARD PLATE) is “active; positive”.

Take `Fc1cc2cccnc2c(F)c1F`: the mutagenic call (Test System: AMES SALMONELLA TYPHIMURIUM, Strain/Indicator: TA100, Metabolic Activation: RAT LIVER S-9, PHENOBARBITAL AND 5,6-BENZOFLAVONE, Method: PREINCUBATION) was “inactive; negative”.

Turning to `OCCCc1ccccc1`, the mutagenic call by setting is: (Test System: AMES SALMONELLA TYPHIMURIUM, Strain/Indicator: TA98, Metabolic Activation: HAMSTER, LIVER, S-9, AROCLOR 1254, Method: STANDARD PLATE) “inactive; negative”; under setting [1], “inactive; negative”; under setting [2], “inactive; negative”; (Test System: AMES SALMONELLA TYPHIMURIUM, Strain/Indicator: TA100, Metabolic Activation: HAMSTER, LIVER, S-9, AROCLOR 1254, Method: STANDARD PLATE) “inactive; negative”; under setting [3], “inactive; negative”; under setting [4], “inactive; negative”. Further, the mutagenic call is “inactive; negative” (Test System: AMES SALMONELLA TYPHIMURIUM, Strain/Indicator: TA1535, Metabolic Activation: HAMSTER, LIVER, S-9, AROCLOR 1254, Method: STANDARD PLATE); “inactive; negative” under setting [5]; “inactive; negative” under setting [6]; “inactive; negative” (Test System: AMES SALMONELLA TYPHIMURIUM, Strain/Indicator: TA1537, Metabolic Activation: HAMSTER, LIVER, S-9, AROCLOR 1254, Method: STANDARD PLATE); “inactive; negative” under setting [7]; “inactive; negative” under setting [8]. Also, the mutagenic call (Test System: AMES SALMONELLA TYPHIMURIUM, Strain/Indicator: TA1538, Metabolic Activation: HAMSTER, LIVER, S-9, AROCLOR 1254, Method: STANDARD PLATE) is “inactive; negative”; the mutagenic call (Test System: AMES SALMONELLA TYPHIMURIUM, Strain/Indicator: TA1538, Metabolic Activation: NONE, Method: STANDARD PLATE) was “inactive; negative”; the mutagenic call (Test System: AMES SALMONELLA TYPHIMURIUM, Strain/Indicator: TA1538, Metabolic Activation: RAT, LIVER, S-9, AROCLOR 1254, Method: STANDARD PLATE) is “inactive; negative”; the mutagenic call (Test System: MOUSE LYMPHOMA, Strain/Indicator: L5178Y (TK+/TK-), Metabolic Activation: NONE, Method: SUSPENSION/PLATE) is “inactive; negative. reevaluation of results: negative”; the mutagenic call (Test System: MOUSE LYMPHOMA, Strain/Indicator: L5178Y (TK+/TK-), Metabolic Activation: RAT, LIVER, S-9, AROCLOR 1254, Method: SUSPENSION/PLATE) was “inactive; negative. reevaluation of results: negative”.

Take `Cc1cc2c(C(C)C)c(O)c(O)c(C=O)c2c(O)c1-c1c(C)cc2c(C(C)C)c(O)c(O)c(C=O)c2c1O`: the mutagenic call was “inactive; negative” under setting [1]; “inactive; negative” (Test System: AMES SALMONELLA TYPHIMURIUM, Strain/Indicator: TA98, Metabolic Activation: RAT, LIVER, S-9, AROCLOR 1254 OR PHENOBARBITAL, Method: STANDARD PLATE); “inactive; negative” under setting [3]; “inactive; negative” (Test System: AMES SALMONELLA TYPHIMURIUM, Strain/Indicator: TA100, Metabolic Activation: RAT, LIVER, S-9, AROCLOR 1254 OR PHENOBARBITAL, Method: STANDARD PLATE).

Take `C1=Cc2ccc3nc4ccc5ccccc5c4cc3c2CC1`: the mutagenic call was “active; positive” (Test System: AMES SALMONELLA TYPHIMURIUM, Strain/Indicator: TA98, Metabolic Activation: GUINEA PIG, LIVER, S-9, 3-METHYLCHOLANTHRENE, Method: STANDARD PLATE) and “active; positive” (Test System: AMES SALMONELLA TYPHIMURIUM, Strain/Indicator: TA100, Metabolic Activation: GUINEA PIG, LIVER, S-9, 3-METHYLCHOLANTHRENE, Method: STANDARD PLATE).

As for `C=CCc1ccccc1OCC(O)CNC(C)C` (stereo not given), the mutagenic call is “inactive; negative” under setting [1], “inactive; negative” under setting [2], “inactive; negative” under setting [3] and “inactive; negative” under setting [4].

As to `CC12CCC=C(C=O)C1(C=O)C2` (stereo not given), the mutagenic call by setting is: under setting [1], “active; positive”; under setting [3], “active; positive”.

On to `O=c1c(Cl)c(Cl)cnn1S(=O)(=O)c1ccc(Cl)cc1`, for which the mutagenic call by setting is: under setting [1], “inactive; negative”; under setting [2], “inactive; negative”; under setting [3], “inactive; negative”; under setting [4], “inactive; negative”; under setting [5], “inactive; negative”; under setting [6], “inactive; negative”. Moreover, the mutagenic call reads like this: under setting [7], “inactive; negative”; under setting [8], “inactive; negative”.

Turning to `Clc1ccc(C(c2ccccc2Cl)C(Cl)(Cl)Cl)cc1` (stereo not given), the mutagenic call reads like this: (End Point: IN VIVO CHROMOSOMAL ABERRATIONS, Test System: MAMMARY GLAND CELLS USING DUAL PROBE FISH, Species: RAT, Strain/Sex: SPRAGUE-DAWLEY/FEMALE, Route: SUBCUTANEOUS INJECTION) “active; positive (polyploidy)”; (End Point: IN VIVO MICRONUCLEUS, Test System: MAMMARY GLAND CELLS, Species: RAT, Strain/Sex: SPRAGUE-DAWLEY/FEMALE, Route: SUBCUTANEOUS INJECTION) “inactive; negative”.
